Measured values: patent US20250268894A1, “MACROCYCLE COMPOUNDS FOR THE TREATMENT OF CANCER” (Hoffmann-La Roche Inc., priority 2022, published 2025)

Tested on: human hepatocytes
Assay: Human hepatocyte stability assay
Format: in vitro ADME
Conditions: 1 μM compound, human hepatocyte suspension 1×10^6 cells/mL
Description: The hepatocyte stability assay measures the rate of disappearance of a compound from incubations with cryopreserved suspension hepatocytes from human. Positive controls, including Midazolam, Raloxifene and Dextromethorphan, are included in every experiment. Incubations consist of 1 μM tested compound and suspension of human hepatocytes (1×10^6 cells/mL) in supplemented Williams' E Medium with 10% FBS and 0.5% Penicillin-streptomycin. The hepatocyte suspension was incubated with intermittent shaking 900 rpm at 37° C., in a 5% CO2 incubator. The reaction was stopped by adding methanol containing internal standard (2 μM Tolbutamide) at 2, 10, 20, 40, 60 and 120 minutes after compound addition, depletion of the parent compound was monitored by LC-MS/MS analysis.

CO[C@@H](C)c1ncc(N2CCN(CC(F)(F)F)CC2)cc1-c1c2c3cc(ccc3n1CC(F)(F)F)-c1csc(n1)C[C@H](NC(=O)[C@H](C(C)C)N(C)C(=O)N1CCOCC1)C(=O)N1CCC[C@H](N1)C(=O)OCC(C)(C)C2 (atropisomer, axis not shown; (M)) [Example 6]
CL_hep (Human): <2.4 mL/min/kg
